In patent publication US11484543B2, “Compositions and methods for diagnosing and treating diseases and disorders associated with mutant KCNJ5” (The Rockefeller University, priority 2017, dated 2022):
Numbering of substitutions follows the chain as printed. pIC50: −log10 of the molar value.

Tests used:
Assay type in all cases: cell-based
[1] = biological target: T1, KCNJ5^L168R (Homo sapiens, UniProt P48544, L168R); assay: Cell viability assay (ATP, CellTiter-Glo): rescue of KCNJ5^L168R-induced lethality in inducible HEK293 cells; conditions: for L168R IC50 / pIC50 / L168R maximum inhibition / L168R minimum inhibition: 10-point dilution 20 to 0.0391 μM, N=3, four-parameter fit; for dose response on KCNJ5^L168R: tested at 1.1, 3.3 and 10 μM
T1 construct: expressed in transfected cells
T1 sequence (P48544 1-419 L168R): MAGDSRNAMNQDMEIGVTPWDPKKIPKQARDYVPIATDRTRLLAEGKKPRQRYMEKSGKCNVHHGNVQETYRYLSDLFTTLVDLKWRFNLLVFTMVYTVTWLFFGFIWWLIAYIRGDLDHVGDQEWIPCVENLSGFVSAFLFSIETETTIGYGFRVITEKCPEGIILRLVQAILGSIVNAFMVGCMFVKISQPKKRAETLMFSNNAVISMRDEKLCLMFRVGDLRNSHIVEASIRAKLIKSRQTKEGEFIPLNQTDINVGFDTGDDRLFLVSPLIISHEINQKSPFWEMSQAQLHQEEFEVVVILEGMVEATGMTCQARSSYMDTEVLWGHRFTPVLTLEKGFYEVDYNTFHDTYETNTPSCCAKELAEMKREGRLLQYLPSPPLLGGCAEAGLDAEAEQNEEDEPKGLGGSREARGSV
Procedure: (§1) WT or mutant human KCNJ5 cDNAs (Choi et al., 2011, Science 331:768-772) were subcloned into the pcDNA5/FRT/TO vector using BamHI and HindIII. Single copies of WT or mutant human KCNJ5 cDNAs expressed under the control of tetracycline-inducible promoter were introduced into HEK293 cells using the Flp-in T-Rex System (Invitrogen) according to the manufacturer's instructions. Cells were grown in selective media containing 10% Tet-system approved FBS (Clontech) until induction.
(§2) Assay plates were centrifuged and incubated overnight at 37° C. 20 nL was transferred from the compound source plate to the cell assay plate using an Aquarius (Tecan) with a 384-well pin tool (V&P Scientific). The final concentration of compound for screening was 10 μM and the final DMSO concentration was 0.1%. 1 μL of tetracycline (final concentration 1 μg/mL) was added to compound containing and negative control wells by Multidrop Combi to induce expression. 1 μL of media was added to positive control wells. Assay plates were centrifuged and incubated for 72 hours at 37° C., 5% CO2. CellTiter-Glo (Promega) was used to measure cell viability in the assay wells according to the manufacturer's instructions. 10 μL/well of CellTiter-Glo reagent was added to the assay plates using a MultiDrop Combi. The plates were shaken on a Thermomixer R (Eppendorf) at 1100 rpm for 1 minute and incubated in the dark for 10 minutes at room temperature. Luminescence was read on an Envision plate reader (PerkinElmer) with 0.3 second sampling time per well. Raw data (luminescence counts per second) was normalized to percent effect by the formula 100−(((sample−negative control mean)/(positive control mean−negative control mean))*100).
(§3) Data was analyzed using the programs Excel (Microsoft) and Prism (GraphPad). Errors are SD unless otherwise indicated in the legend. Dose-response curves were fitted with a four-parameter logistic equation: F(x)=D+(A−D)/(1+(x/C)^B), with A=minimum inhibition B=Hill's slope C=inflection point D=maximum inhibition Synthesis of Macrolide Derivatives
(§4) Cellular ATP levels were measured as a proxy for cell viability, using a commercially available luciferase assay (Crouch et al., 1993, Proc. Natl. Acad. Sci. U.S.A. 109:2533-2538).
(§5) Conditions were designed to maximize reproducibility and the signal-to-background ratios (S/B) (Zhang et al., 1999, J. Biomol. Screen 4:67-73) comparing ATP level in uninduced and induced cells. Screening was performed in 384-well plates; compounds were added 24 hours after plating, and channel expression was induced immediately after compound addition. ATP levels were measured 72 hours after induction.

[2] = biological target: T2, KCNJ5^WT (Homo sapiens, UniProt P48544); assay: Membrane potential assay (FLIPR dye) in inducible KCNJ5^WT HEK293 cells; conditions: 10-point dilution 20 to 0.0391 μM, N=3, four-parameter fit
T2 construct: expressed in transfected cells
T2 sequence (P48544 1-419): T1 sequence (P48544 1-419 L168R) with R168L
Procedure: as §1, with “Single” for “WT or mutant human KCNJ5 cDNAs (Choi et al., 2011, Science 331:768-772) were subcloned into the pcDNA5/FRT/TO vector using BamHI and HindIII. Single”
20 μL of WT cells were plated into sterile black with clear bottom tissue culture-treated 384-well plates (Corning) at a density of 10000 cells/well using a Multidrop Combi. Assay plates were centrifuged at 500 rpm for 10 seconds and incubated overnight at 37° C. in a humidified 5% CO2 incubator. After the overnight incubation, 1 μL of tetracycline (final conc. 1 μg/mL) was added to all wells by Multidrop Combi to induce KCNJ5. Assay plates were centrifuged at 500 rpm for 10 seconds and incubated overnight at 37° C. in a humidified 5% CO2 incubator. The next day, 10 μL of medium was removed from each well using a PlateMate Plus (Thermo Scientific). 10 μL of Blue Formula FLIPR membrane potential dye (Molecular Devices) was added to cells using a Multichannel pipettor. Assay plates were incubated for 30 minutes. at 37° C. After incubation, 20 nL was transferred twice from the compound source plate to the cell assay plate using an Aquarius with a 384-well pin tool for a total transfer volume of 40 nL and a final DMSO concentration of 0.2%. 1 μL of 20 mM BaCl2 was added to positive control wells using a Multichannel pipettor. The assay plate was incubated 20 minutes at room temperature in the dark.
Changes in membrane potential were detected using a well-established fluorescence-based measure of membrane potential (FIG. 4).

[3] = biological target: T3, KCNJ5^G151R (Homo sapiens, UniProt P48544, G151R); assay: cell-based; conditions: for G151R maximum inhibition / G151R minimum inhibition / pIC50: 10-point dilution 20 to 0.0391 μM, N=3, four-parameter fit; for inhibition of KCNJ5^MUT (structure-activity statement): macrolide series, dilution curves; for dose response on KCNJ5^G151R: tested at 1.1, 3.3 and 10 μM
T3 construct: expressed in transfected cells
T3 sequence (P48544 1-419 G151R): T1 sequence (P48544 1-419 L168R) with G151R, R168L
Procedure: as §1, §2, §3, §4, §5
Levels of ATP in uninduced and induced cells without added test compound defined 100% and 0% effect, respectively, and served as a proxy for lethality.

Compound | WT IC50 [2] | G151R maximum inhibition [3] [%] | G151R minimum inhibition [3] [%] | pIC50 [3] | activity against KCNJ5^G151R in the primary screen ([3]; 10 μM) | further results
CC[C@H]1OC(=O)[C@H](C)[C@@H](O[C@H]2C[C@@](C)(OC)[C@@H](O)[C@H](C)O2)[C@H](C)[C@@H](O[C@@H]2O[C@H](C)C[C@H](N(C)C)[C@H]2O)[C@@]2(C)C[C@@H](C)[C@@]3(O[C@@]1(C)[C@H](O)[C@H]3C)O2 [Anhydroerythromycin A, anhydroerythromycin A] | No fit | 60.00 | 5.61 | 5.07 |  | L168R IC50 [1]: No fit
CC[C@H]1OC(=O)[C@H](C)[C@@H](O[C@H]2C[C@@](C)(OC)[C@@H](O)[C@H](C)O2)[C@H](C)[C@@H](O[C@@H]2O[C@H](C)C[C@H](N(C)C)[C@H]2O)[C@](C)(O)C[C@@H](C)CN(C)[C@H](C)[C@@H](O)[C@]1(C)O [Azithromycin, azithromycin] | No fit | 32.00 | 5.11 | 5.24 |  | pIC50 [1]: 5.09; L168R maximum inhibition [1]: 12.01%; L168R minimum inhibition [1]: 0.71%
CC[C@H]1OC(=O)[C@H](C)[C@@H](O[C@H]2C[C@@](C)(OC)[C@@H](O)[C@H](C)O2)[C@H](C)[C@@H](O[C@@H]2O[C@H](C)C[C@H](N(C)C)[C@H]2O)[C@](C)(OC)C[C@@H](C)C(=O)[C@H](C)[C@@H](O)[C@]1(C)O [Clarithromycin, clarithromycin] | No fit | 83.09 | 6.40 | 6.15 |  | pIC50 [1]: 5.76; L168R maximum inhibition [1]: 55.70%; L168R minimum inhibition [1]: 2.35%; dose response on KCNJ5^L168R [1]: showed a dose response; inhibition of KCNJ5^MUT (structure-activity statement) [3]: potent effects
CC[C@H]1OC(=O)[C@H](C)[C@@H](O[C@H]2C[C@@](C)(OC)[C@@H](O)[C@H](C)O2)[C@H](C)[C@@H](O[C@@H]2O[C@H](C)C[C@H](N(C)C)[C@H]2O)[C@](C)(O)C[C@@H](C)[C@@H]2N[C@@H](COCCOC)O[C@H]([C@H]2C)[C@]1(C)O [Dirithromycin, dirithromycin] | No fit | 18.29 | 1.31 | 4.80 |  | L168R IC50 [1]: No fit
CCN(CC)CCN1c2ccccc2Sc2ccc3ccccc3c21 [NSC18883] |  |  |  |  |  | dose response on KCNJ5^L168R [1]: either high IC50 values or low maximum inhibition; dose response on KCNJ5^G151R [3]: potent inhibitors
C1CCC(N=C(NC23CC4CC(CC(C4)C2)C3)N2CCOCC2)CC1.Cl [YU224116, U-37883A-HCl] |  |  |  |  |  | dose response on KCNJ5^L168R [1]: either high IC50 values or low maximum inhibition; % effect (1) ([3]; 10 μM, ATP level 72 h after induction, uninduced = 100%, induced = 0% effect, first of the two runs (primary screen / hit pick)): 49.9%; % effect (2) ([3]; 10 μM, ATP level 72 h after induction, uninduced = 100%, induced = 0% effect, second of the two runs (primary screen / hit pick, confirmatory testing)): 65.8%; mean % effect ([3]; 10 μM, mean of primary screen and hit pick): 57.9%; dose response on KCNJ5^G151R [3]: potent inhibitors
CO[C@H]1C[C@H](O[C@H]2[C@H](C)[C@@H](O[C@@H]3O[C@H](C)C[C@H](N(C)C)[C@H]3O)[C@@H](C)C[C@@]3(CO3)C(=O)[C@H](C)[C@@H](O)[C@@H](C)[C@@H](C)OC(=O)[C@@H]2C)O[C@@H](C)[C@@H]1O [oleandomycin] |  |  |  |  | little or no activity | 
CC[C@@H]1C=CC=CC[C@H](C)[C@@H](O)[C@@H](C)C(=O)[C@H](C)[C@@H](O)[C@H](C)C(=O)[C@H](C)[C@@H](O)[C@H](C)C=CC(=O)O[C@H]2[C@@H](C)[C@@H](CC1)O[C@@]1(CC[C@@H](C)[C@@H](C[C@H](C)O)O1)[C@@H]2C [oligomycin C] |  |  |  |  | little or no activity | 
C=C1c2cccc(O)c2C(=O)C2=C(O)[C@]3(O)C(=O)C(C(N)=O)=C(O)[C@@H](N(C)C)[C@@H]3[C@@H](O)[C@H]12 [rondomycin] |  |  |  |  | little or no activity | 
CC[C@H]1OC(=O)[C@H](C)C(=O)[C@H](C)[C@@H](O[C@@H]2O[C@H](C)C[C@H](N(C)C)[C@H]2O)[C@](C)(OC)C[C@@H](C)C(=O)[C@H](C)[C@H]2N(CCCCn3cnc(-c4cccnc4)c3)C(=O)O[C@]12C [telithromycin] |  |  |  |  | below activity threshold | inhibition of KCNJ5^MUT (structure-activity statement) [3]: loss of inhibition
CO[C@H]1C[C@H](O[C@H]2[C@H](C)[C@@H](O[C@@H]3O[C@H](C)C[C@H](N(C)C)[C@H]3OC(C)=O)[C@@H](C)C[C@@]3(CO3)C(=O)[C@H](C)[C@@H](OC(C)=O)[C@@H](C)[C@@H](C)OC(=O)[C@@H]2C)O[C@@H](C)[C@@H]1OC(C)=O [troleandomycin] |  |  |  |  | little or no activity | 
spiramycin |  |  |  |  | little or no activity | 
